# Assay results taken from patent US20180200257A1, “METHODS FOR THE TREATMENT OF INFLAMMATORY DISORDERS” (Galapagos NV, priority 2015, published 2018).
# Tested on: subjects with moderately to severely active RA who have an inadequate response to methotrexate (MTX)
# Assay: Study 1 (add-on to MTX) - Aspartate Aminotransferase (AST) levels
# Assay type: in vivo, human
# Protocol: Double-blind, placebo-controlled add on study in subjects with moderately to severely active RA who have an inadequate response to methotrexate (MTX) (oral or parenteral).
# 595 subjects randomized to one of 6 dose regimens of Compound 1 (dosed as [Compound 1:HCl:3H2O]) (3 dose levels administered either once or twice daily) or placebo on top of each subject's stable dose of MTX.
# Compound 1 (dosed as [Compound 1:HCl:3H2O]) is dosed for twelve weeks once daily (q.d.) (50 mg, 100 mg or 200 mg) or twice daily (b.i.d.) (25 mg, 50 mg or 100 mg); or placebo.
# At Week 12, the subjects on placebo who have not achieved 20% improvement in swollen joint count (SJC66) and tender joint count (TJC68) are re-randomized automatically to receive Compound 1 (dosed as a [Compound 1:HCl:3H2O]) either at 100 mg q.d. or 50 mg b.i.d. doses in a blinded fashion; subjects on 50 mg q.d. who have not achieved 20% improvement in SJC66 and TJC68 will be assigned to 100 mg q.d. and subjects on 25 mg b.i.d. that have not achieved a 20% improvement in SJC66 and TJC68 will be assigned to 50 mg b.i.d. Subjects who switch treatment at week 12 are handled as if they discontinued at week 12 for the purpose of statistical analysis, whereas subjects in the other groups will maintain their randomized treatment until Week 24.
# AST levels determination is available at Quest Diagnostics, Clinical Trials, Quest House, 125-135 Staines Road, Hounslow, Middlesex, TW3 3JB, United Kingdom under Catalogue n#84450. For Study 3, the data are obtained at BARC Europe, 3B,Industrie Park, Zwijnaarde, B-9052 Ghent, Belgium.
# AST catalyzes the transamination of aspartate and 2-oxoglutarate, forming L-glutamate and oxalacetate. The oxalacetate is reduced to L-malate by malate dehydrogenase, whilst NADH is converted to NAD+, measured spectrophotometrically. Guidelines for the AST value have been issued by the association for Clinical Biochemistry and Laboratory Medicine, 130-132 Tooley Street LONDON SE1 2TU, united Kingdom, wherein the AST value should be below 34 U/l in Female and below 45 U/L in male. As disclosed in the respective study protocols for Study 1 or 2, at week 12, depending on the outcome of their treatment, the subjects may be continued in their initial treatment course, or reassigned to another treatment group in a randomized blinded fashion until week 24. Therefore, the number of subjects (N) for the period of either 12 weeks, or 24 weeks is provided to reflect this redistribution at week 12.
# [1] = 12 weeks results, 50 mg q.d., week 1
# [2] = 12 weeks results, 50 mg q.d., week 2
# [3] = 12 weeks results, 50 mg q.d., week 4
# [4] = 12 weeks results, 50 mg q.d., week 8
# [5] = 12 weeks results, 50 mg q.d., week 12
# [6] = 12 weeks results, 100 mg q.d., week 1
# [7] = 12 weeks results, 100 mg q.d., week 2
# [8] = 12 weeks results, 100 mg q.d., week 4
# [9] = 12 weeks results, 100 mg q.d., week 8
# [10] = 12 weeks results, 100 mg q.d., week 12
# [11] = 12 weeks results, 200 mg q.d., week 1
# [12] = 12 weeks results, 200 mg q.d., week 2
# [13] = 12 weeks results, 200 mg q.d., week 4
# [14] = 12 weeks results, 200 mg q.d., week 8
# [15] = 12 weeks results, 200 mg q.d., week 12
# [16] = 12 weeks results, 2 × 25 mg b.i.d., week 1
# [17] = 12 weeks results, 2 × 25 mg b.i.d., week 2
# [18] = 12 weeks results, 2 × 25 mg b.i.d., week 4
# [19] = 12 weeks results, 2 × 25 mg b.i.d., week 8
# [20] = 12 weeks results, 2 × 25 mg b.i.d., week 12
# [21] = 12 weeks results, 2 × 50 mg b.i.d., week 1
# [22] = 12 weeks results, 2 × 50 mg b.i.d., week 2
# [23] = 12 weeks results, 2 × 50 mg b.i.d., week 4
# [24] = 12 weeks results, 2 × 50 mg b.i.d., week 8
# [25] = 12 weeks results, 2 × 50 mg b.i.d., week 12
# [26] = 12 weeks results, 2 × 100 mg b.i.d., week 1
# [27] = 12 weeks results, 2 × 100 mg b.i.d., week 2
# [28] = 12 weeks results, 2 × 100 mg b.i.d., week 4
# [29] = 12 weeks results, 2 × 100 mg b.i.d., week 8
# [30] = 12 weeks results, 2 × 100 mg b.i.d., week 12
# [31] = 24 weeks results, continued 25 mg b.i.d., week 1
# [32] = 24 weeks results, continued 25 mg b.i.d., week 2
# [33] = 24 weeks results, continued 25 mg b.i.d., week 4
# [34] = 24 weeks results, continued 25 mg b.i.d., week 8
# [35] = 24 weeks results, continued 25 mg b.i.d., week 12
# [36] = 24 weeks results, continued 25 mg b.i.d., week 16
# [37] = 24 weeks results, continued 25 mg b.i.d., week 20
# [38] = 24 weeks results, continued 25 mg b.i.d., week 24
# [39] = 24 weeks results, continued 50 mg b.i.d., week 1
# [40] = 24 weeks results, continued 50 mg b.i.d., week 2
# [41] = 24 weeks results, continued 50 mg b.i.d., week 4
# [42] = 24 weeks results, continued 50 mg b.i.d., week 8
# [43] = 24 weeks results, continued 50 mg b.i.d., week 12
# [44] = 24 weeks results, continued 50 mg b.i.d., week 16
# [45] = 24 weeks results, continued 50 mg b.i.d., week 20
# [46] = 24 weeks results, continued 50 mg b.i.d., week 24
# [47] = 24 weeks results, continued 50 mg q.d., week 1
# [48] = 24 weeks results, continued 50 mg q.d., week 2
# [49] = 24 weeks results, continued 50 mg q.d., week 4
# [50] = 24 weeks results, continued 50 mg q.d., week 8
compound,measurement,setting,value
"O=C(Nc1nc2cccc(-c3ccc(CN4CCS(=O)(=O)CC4)cc3)n2n1)C1CC1 [Compound 1, cyclopropanecarboxylic acid {5-[4-(1,1-dioxo-thiomorpholin-4-ylmethyl)-phenyl]-[1,2,4]triazolo[1,5-a]pyridin-2-yl}-amide]",Study 1 - AST Mean CFB,[1],1 IU/L
same,Study 1 - AST Mean percentage CFB,[1],7%
same,Study 1 - AST Mean CFB,[2],0 IU/L
same,Study 1 - AST Mean percentage CFB,[2],5%
same,Study 1 - AST Mean CFB,[3],0 IU/L
same,Study 1 - AST Mean percentage CFB,[3],5%
same,Study 1 - AST Mean CFB,[4],0 IU/L
same,Study 1 - AST Mean percentage CFB,[4],7%
same,Study 1 - AST Mean CFB,[5],1 IU/L
same,Study 1 - AST Mean percentage CFB,[5],10%
same,Study 1 - AST Mean CFB,[6],3 IU/L
same,Study 1 - AST Mean percentage CFB,[6],14%
same,Study 1 - AST Mean CFB,[7],1 IU/L
same,Study 1 - AST Mean percentage CFB,[7],9%
same,Study 1 - AST Mean CFB,[8],2 IU/L
same,Study 1 - AST Mean percentage CFB,[8],11%
same,Study 1 - AST Mean CFB,[9],3 IU/L
same,Study 1 - AST Mean percentage CFB,[9],17%
same,Study 1 - AST Mean CFB,[10],2 IU/L
same,Study 1 - AST Mean percentage CFB,[10],16%
same,Study 1 - AST Mean CFB,[11],3 IU/L
same,Study 1 - AST Mean percentage CFB,[11],16%
same,Study 1 - AST Mean CFB,[12],2 IU/L
same,Study 1 - AST Mean percentage CFB,[12],13%
same,Study 1 - AST Mean CFB,[13],3 IU/L
same,Study 1 - AST Mean percentage CFB,[13],19%
same,Study 1 - AST Mean CFB,[14],5 IU/L
same,Study 1 - AST Mean percentage CFB,[14],27%
same,Study 1 - AST Mean CFB,[15],5 IU/L
same,Study 1 - AST Mean percentage CFB,[15],29%
same,Study 1 - AST Mean CFB,[16],0 IU/L
same,Study 1 - AST Mean percentage CFB,[16],3%
same,Study 1 - AST Mean CFB,[17],0 IU/L
same,Study 1 - AST Mean percentage CFB,[17],6%
same,Study 1 - AST Mean CFB,[18],0 IU/L
same,Study 1 - AST Mean percentage CFB,[18],6%
same,Study 1 - AST Mean CFB,[19],0 IU/L
same,Study 1 - AST Mean percentage CFB,[19],10%
same,Study 1 - AST Mean CFB,[20],2 IU/L
same,Study 1 - AST Mean percentage CFB,[20],14%
same,Study 1 - AST Mean CFB,[21],1 IU/L
same,Study 1 - AST Mean percentage CFB,[21],6%
same,Study 1 - AST Mean CFB,[22],0 IU/L
same,Study 1 - AST Mean percentage CFB,[22],6%
same,Study 1 - AST Mean CFB,[23],2 IU/L
same,Study 1 - AST Mean percentage CFB,[23],14%
same,Study 1 - AST Mean CFB,[24],2 IU/L
same,Study 1 - AST Mean percentage CFB,[24],14%
same,Study 1 - AST Mean CFB,[25],2 IU/L
same,Study 1 - AST Mean percentage CFB,[25],17%
same,Study 1 - AST Mean CFB,[26],1 IU/L
same,Study 1 - AST Mean percentage CFB,[26],10%
same,Study 1 - AST Mean CFB,[27],2 IU/L
same,Study 1 - AST Mean percentage CFB,[27],14%
same,Study 1 - AST Mean CFB,[28],3 IU/L
same,Study 1 - AST Mean percentage CFB,[28],19%
same,Study 1 - AST Mean CFB,[29],2 IU/L
same,Study 1 - AST Mean percentage CFB,[29],17%
same,Study 1 - AST Mean CFB,[30],3 IU/L
same,Study 1 - AST Mean percentage CFB,[30],20%
same,Study 1 - AST Mean CFB,[31],0.7 IU/L
same,Study 1 - AST Mean percentage CFB,[31],6.7%
same,Study 1 - AST Mean CFB,[32],0.7 IU/L
same,Study 1 - AST Mean percentage CFB,[32],7.1%
same,Study 1 - AST Mean CFB,[33],1.0 IU/L
same,Study 1 - AST Mean percentage CFB,[33],8.6%
same,Study 1 - AST Mean CFB,[34],1.6 IU/L
same,Study 1 - AST Mean percentage CFB,[34],14.0%
same,Study 1 - AST Mean CFB,[35],2.2 IU/L
same,Study 1 - AST Mean percentage CFB,[35],16.4%
same,Study 1 - AST Mean CFB,[36],1.4 IU/L
same,Study 1 - AST Mean percentage CFB,[36],12.6%
same,Study 1 - AST Mean CFB,[37],1.1 IU/L
same,Study 1 - AST Mean percentage CFB,[37],10.8%
same,Study 1 - AST Mean CFB,[38],1.7 IU/L
same,Study 1 - AST Mean percentage CFB,[38],14.0%
same,Study 1 - AST Mean CFB,[39],0.5 IU/L
same,Study 1 - AST Mean percentage CFB,[39],5.7%
same,Study 1 - AST Mean CFB,[40],0.4 IU/L
same,Study 1 - AST Mean percentage CFB,[40],5.5%
same,Study 1 - AST Mean CFB,[41],1.8 IU/L
same,Study 1 - AST Mean percentage CFB,[41],14.4%
same,Study 1 - AST Mean CFB,[42],1.7 IU/L
same,Study 1 - AST Mean percentage CFB,[42],14.0%
same,Study 1 - AST Mean CFB,[43],2.4 IU/L
same,Study 1 - AST Mean percentage CFB,[43],17.1%
same,Study 1 - AST Mean CFB,[44],1.9 IU/L
same,Study 1 - AST Mean percentage CFB,[44],13.7%
same,Study 1 - AST Mean CFB,[45],3.4 IU/L
same,Study 1 - AST Mean percentage CFB,[45],20.7%
same,Study 1 - AST Mean CFB,[46],1.5 IU/L
same,Study 1 - AST Mean percentage CFB,[46],11.1%
same,Study 1 - AST Mean CFB,[47],0.8 IU/L
same,Study 1 - AST Mean percentage CFB,[47],7.5%
same,Study 1 - AST Mean CFB,[48],−0.2 IU/L
same,Study 1 - AST Mean percentage CFB,[48],5.7%
same,Study 1 - AST Mean CFB,[49],−0.4 IU/L
same,Study 1 - AST Mean percentage CFB,[49],5.2%
same,Study 1 - AST Mean CFB,[50],0.4 IU/L
same,Study 1 - AST Mean percentage CFB,[50],9.0%
